According to ChEMBL document CHEMBL1641384, “QSAR of adenosine receptor antagonists: Exploring physicochemical requirements for binding of pyrazolo[4,3-e]-1,2,4-triazolo[1,5-c]pyrimidine derivatives with human adenosine A(3) receptor subtype” (Bioorg Med Chem Lett, 2011):

biological target: T1, Adenosine receptor A3 (Homo sapiens, UniProt P0DMS8); test: Displacement of [3H]MRE3008-F20 from human adenosine A3 receptor expressed in CHO cells after 120 mins; type: cell-based
T1 sequence (P0DMS8 whole entry): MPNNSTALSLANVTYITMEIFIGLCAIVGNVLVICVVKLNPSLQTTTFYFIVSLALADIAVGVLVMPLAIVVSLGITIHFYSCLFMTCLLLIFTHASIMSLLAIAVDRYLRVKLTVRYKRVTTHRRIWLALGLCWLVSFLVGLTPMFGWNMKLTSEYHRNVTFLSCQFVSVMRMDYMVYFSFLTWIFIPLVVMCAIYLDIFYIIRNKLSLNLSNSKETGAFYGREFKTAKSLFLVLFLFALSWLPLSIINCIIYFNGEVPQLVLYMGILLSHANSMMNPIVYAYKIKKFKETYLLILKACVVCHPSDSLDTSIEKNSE

Compound | Ki [nM]
CCn1cc2c(nc(N)n3nc(-c4ccco4)nc23)n1 | 407
CCCn1cc2c(nc(NC(=O)Nc3cccc(Cl)c3)n3nc(-c4ccco4)nc23)n1 | 1.58
CCCCCCCCn1cc2c(nc(NC(=O)Nc3ccc(C)cc3)n3nc(-c4ccco4)nc23)n1 | 4.07
CCCn1cc2c(nc(N)n3nc(-c4ccco4)nc23)n1 | 331
CCn1cc2c(nc(NC(=O)Nc3cccc(Cl)c3)n3nc(-c4ccco4)nc23)n1 | 0.912

Stronger by Ki, values ahead:

Ki [nM] | Compound
0.794 | CCn1cc2c(nc(NC(=O)Nc3ccc(OC)cc3)n3nc(-c4ccco4)nc23)n1
0.501 | CCCCn1cc2c(nc(NC(=O)Nc3ccc4c(c3)OCO4)n3nc(-c4ccco4)nc23)n1
0.302 | CCCn1cc2c(nc(NC(=O)Nc3ccc4c(c3)OCO4)n3nc(-c4ccco4)nc23)n1
0.269 | CCn1cc2c(nc(NC(=O)Nc3ccc4c(c3)OCO4)n3nc(-c4ccco4)nc23)n1
0.24 | Cn1cc2c(nc(NC(=O)Nc3ccc4c(c3)OCO4)n3nc(-c4ccco4)nc23)n1
